Series [1] has as its target Human immunodeficiency virus type 1 reverse transcriptase (Human immunodeficiency virus 1, UniProt Q72547). Put plainly: Inhibition of HIV1 reverse transcriptase assessed as reduction in biotin-dUTP incorporation using poly(rA)-oligo(dT) as template/primer and digoxigenin-dUTP/biotin-dUTP/dTTP nucleotides incubated for 1 hr by ELISA. In general terms: In an ELISA, binding on a coated surface is turned into a signal by an enzyme label.

The subject of series [2] is Human immunodeficiency virus 1. Kind of series: Antiviral activity against wild type HIV1 3B infected in human MT4 cells assessed as reduction of virus-induced cytopathic effect after 5 days by MTT assay. The series is classed as functional, organism-based. Conditions: Human immunodeficiency virus 1, 3B, MT4, 120 h. (In general: Damage to the host cells serves as the signal in cytopathic effect assays.)

In series [3] the test system is Human immunodeficiency virus 2. Kind of series: Antiviral activity against wild type HIV2 ROD infected in human MT4 cells assessed as reduction of virus-induced cytopathic effect after 5 days by MTT assay. The series is classed as functional, organism-based. Conditions: Human immunodeficiency virus 2, ISOLATE ROD, MT4, 120 h.
A short description of series [4]: Selectivity index, ratio of CC50 for human MT4 cells to EC50 for wild type HIV1 3B infected in human MT4 cells. It is filed as toxicity, cell-based. To be noted: read-out: Ratio CC50/EC50.
Series [5] can be described thus: Cytotoxicity against human MT4 cells assessed as reduction in viability of mock infected cells after 5 days MTT assay. It is filed as cell-based.
Series [6] can be described thus: Selectivity index, ratio of CC50 for human MT4 cells to EC50 for wild type HIV2 ROD infected in human MT4 cells. The series is classed as toxicity, cell-based. To be noted: read-out: Ratio CC50/EC50.

On to `Cc1cc(C#N)cc(C)c1Oc1cc(NCCN(C)C)nc(Nc2ccc(C#N)cc2)c1`, for which the IC50 in series [1] was determined as 3.4 µM. The EC50 was 0.041 µM in series [2] and above 1.99 µM in series [3]. The values for the selectivity ratio in series [4] and in series [6] were 114 and below 1, respectively. Further, the CC50 at 120 h in series [5] came out at 4.67 µM.

As a reminder, the IC50 is the concentration that inhibits the measured activity by half. A word on the EC50: it is the concentration giving half of the maximal effect. What is called CC50 is the concentration at which the toxic effect on the cells reaches its halfway point.

These data come from ChEMBL document CHEMBL3758129, “Design, synthesis and anti-HIV evaluation of novel diarylpyridine derivatives targeting the entrance channel of NNRTI binding pocket” (Eur J Med Chem, 2016).
